Data published in patent US12338238B2, “Inhibitors of SARM1” (Disarm Therapeutics, Inc., priority 2018, dated 2025).

The molecules below were run against SARM1 SAM-TIR (Homo sapiens (Human), UniProt Q6SZW1) (assay: biochemical). Settings: SAM-TIR lysate 5 μg/mL, 2 hr pre-incubation, 5 μM NAD+, RapidFire MS.
Assay type: biochemical

SARM1 SAM-TIR, sequence (Q6SZW1 409-724): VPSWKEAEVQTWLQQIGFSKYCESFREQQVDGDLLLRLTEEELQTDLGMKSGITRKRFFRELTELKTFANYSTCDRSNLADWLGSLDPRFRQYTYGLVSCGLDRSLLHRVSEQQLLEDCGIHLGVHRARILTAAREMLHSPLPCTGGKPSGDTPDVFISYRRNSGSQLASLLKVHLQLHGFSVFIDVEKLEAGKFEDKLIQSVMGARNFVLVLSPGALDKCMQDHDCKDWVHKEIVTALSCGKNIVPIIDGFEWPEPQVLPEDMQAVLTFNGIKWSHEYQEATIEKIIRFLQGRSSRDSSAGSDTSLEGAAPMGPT

Row | Structure (SMILES) | IC50
1 | Brc1cncc2ccccc12 [Example 2] | 15 to 30 µM
2 | O=c1[nH]cc(I)c2ccncc12 [Example 3] | < 5 µM
3 | O=c1[nH]cc(Br)c2ccncc12 [Example 4] | < 5 µM
4 | O=c1[nH]ccc2ccncc12 [Example 5] | < 5 µM
5 | O=c1[nH]ncc2ccc(F)cc12 [Example 7] | > 30 µM
6 | Brc1cccc2cnccc12 [Example 8] | < 5 µM
7 | Nc1ccc2cnccc2c1Cl [Example 9] | 15 to 30 µM
8 | Brc1cccc2cnncc12 [Example 10] | < 5 µM
9 | Oc1cccc2ccncc12 [Example 11] | < 5 µM
10 | Nc1ccc(Br)c2ccncc12 [Example 12] | < 5 µM
11 | Cc1cncc2cccc(Br)c12 [Example 13] | 5 to 15 µM
12 | Oc1cc2c(Br)cccc2cn1 [Example 14] | > 30 µM
13 | COc1ccc(Br)c2ccncc12 [Example 15] | < 5 µM
14 | Brc1ccc2cnncc2c1 [Example 16] | > 30 µM
15 | Cc1cncc2ccccc12 [Example 17] | 5 to 15 µM
16 | Nc1nccc2c(I)cccc12 [Example 18] | < 5 µM
17 | c1cc(C2CC2)c2ccncc2c1 [Example 19] | 5 to 15 µM
18 | CCn1cc(Br)c2ccncc2c1=O [Example 20] | 5 to 15 µM
19 | COc1ncc(Br)c2ccncc12 [Example 21] | 5 to 15 µM
20 | CC(C)c1c[nH]c(=O)c2cnccc12 [Example 22] | 5 to 15 µM
21 | CN(C)c1nccc2c(Br)cccc12 [Example 23] | > 30 µM

Row | Structure (SMILES) | IC50
22 | COc1ncc(C2CC2)c2ccncc12 [Example 24] | > 30 µM
23 | CC(C)Oc1cccc2cnccc12 [Example 25] | > 30 µM
24 | CNc1nccc2c(Br)cccc12 [Example 27] | > 30 µM
25 | COc1c[nH]c(=O)c2cnccc12 [Example 28] | > 30 µM
26 | O=c1cc(Br)c2ccncc2[nH]1 [Example 29] | < 5 µM
27 | Fc1cc(Cl)c2ccncc2c1 [Example 30] | < 5 µM
28 | Nc1ccc(Cl)c2ccncc12 [Example 32] | < 5 µM
29 | O=c1[nH]ccc2c(Br)cccc12 [Example 33] | 5 to 15 µM
30 | Clc1ccc(Br)c2cnccc12 [Example 34] | 15 to 30 µM
31 | Nc1cccc2cncc(Br)c12 [Example 35] | 15 to 30 µM
32 | c1cc2ccncc2cn1 [Example 36] | 15 to 30 µM
33 | Nc1cccc2cnncc12 [Example 37] | 15 to 30 µM
34 | Nc1nccc2ccncc12 [Example 38] | > 30 µM
35 | O=c1[nH]ccc2ccc(O)cc12 [Example 39] | > 30 µM
36 | COc1cc2cc[nH]c(=O)c2cc1F [Example 40] | > 30 µM
37 | Clc1ccnc2cnccc12 [Example 41] | < 5 µM
38 | Clc1cccc2cnccc12 [Example 42] | < 5 µM
39 | c1ccc2nnccc2c1 [Example 43] | < 5 µM
40 | Oc1cccc2cnccc12 [Example 44] | < 5 µM
41 | OCc1cccc2cnccc12 [Example 45] | < 5 µM
42 | Nc1ncc(Br)c2ccncc12 [Example 46] | < 5 µM

Row | Structure (SMILES) | IC50
43 | O=[N+]([O-])c1cccc2cnccc12 [Example 47] | 5 to 15 µM
44 | c1ccc2cnccc2c1 [Example 48] | 5 to 15 µM
45 | COc1cccc2cnccc12 [Example 49] | 5 to 15 µM
46 | NCc1cccc2cnccc12 [Example 50] | 15 to 30 µM
47 | COC(=O)c1cccc2cnccc12 [Example 51] | > 30 µM
48 | Nc1cccc2c(Br)cncc12 [Example 52] | > 30 µM
49 | Cc1nccc2c(Br)cccc12 [Example 53] | > 30 µM
50 | O=C(O)c1ccnc2cnccc12 [Example 54] | 15 to 30 µM
51 | Nc1nccc2c(Br)cccc12 [Example 55] | < 5 µM
52 | COc1cccc2ccncc12 [Example 56] | < 5 µM
53 | Clc1ccc(Cl)c2cnccc12 [Example 57] | 5 to 15 µM
54 | Cc1cc2c(N)cccc2cn1 [Example 58] | 5 to 15 µM
55 | Oc1cncc2ccccc12 [Example 59] | 15 to 30 µM
56 | Brc1cccc2cncnc12 [Example 60] | > 30 µM
57 | FC(F)(F)c1cccc2cnccc12 [Example 61] | > 30 µM
58 | Nc1ccc(O)c2cnccc12 [Example 62] | < 5 µM
59 | Nc1cncc2ccccc12 [Example 63] | 5 to 15 µM
60 | Ic1cccc2cnncc12 [Example 64] | < 5 µM
61 | Oc1ccc(Br)c2ccncc12 [Example 65] | < 5 µM
62 | Cn1cc(Br)c2ccncc2c1=O [Example 66] | < 5 µM
63 | Brc1ccnc2cnccc12 [Example 67] | < 5 µM

Row | Structure (SMILES) | IC50
64 | CNc1ncc(Br)c2ccncc12 [Example 68] | < 5 µM
65 | COc1cc(Br)c2ccncc2n1 [Example 69] | < 5 µM
66 | Brc1cncc2cnccc12 [Example 70] | < 5 µM
67 | Nc1ccnc2cnccc12 [Example 71] | 5 to 15 µM
68 | CNC(=O)Nc1ncc(Br)c2ccncc12 [Example 72] | 5 to 15 µM
69 | COc1cccc2cnncc12 [Example 73] | 5 to 15 µM
70 | CSc1cccc2cnccc12 [Example 74] | 5 to 15 µM
71 | Nc1c[nH]c(=O)c2cnccc12 [Example 75] | 15 to 30 µM
72 | Cc1nccc2c(Br)c[nH]c(=O)c12 [Example 76] | 15 to 30 µM
73 | O=S(=O)(Nc1nccc2c(Br)cccc12)C1CC1 [Example 77] | 15 to 30 µM
74 | O=c1[nH]cnc2ccncc12 [Example 78] | 15 to 30 µM
75 | CC(=O)c1cccc2cnccc12 [Example 79] | 15 to 30 µM
76 | O=c1[nH]cc([N+](=O)[O-])c2ccncc12 [Example 80] | > 30 µM
77 | Clc1ncc(Br)c2ccncc12 [Example 81] | > 30 µM
78 | CC(C)(O)c1cccc2cnccc12 [Example 82] | > 30 µM
79 | O=c1[nH]cc(Br)c2cc[n+]([O-])cc12 [Example 83] | > 30 µM
80 | Nc1nccc2c(C3CC3)cccc12 [Example 84] | > 30 µM
81 | C#Cc1cccc2cnccc12 [Example 85] | < 5 µM

What follows are molecules tested on mouse dorsal root ganglion (DRG) axons (assay: Axon degeneration assay in mouse DRG drop culture). Settings: protection of axon fragmentation, axonal transection or chemotoxic stimuli.
Assay type: cell-based
Procedure: This Example illustrates an in vitro axon degeneration assay used to characterize compounds of Formula I. This assay is used to test the efficacy of the compounds of Formula I to prevent axonal degeneration in a mouse dorsal root ganglion (DRG) drop culture.
Mouse dorsal root ganglion neurons (DRGs) were dissected out of E12.5 CD1 mice (50 ganglion per embryo) and incubated with 0.5% Trypsin solution containing 0.02% EDTA (Gibco) at 37° C. for 15 min. The cells were then triturated by gentle pipetting and washed 3 times with DRG growth medium (Neurobasal medium (Gibco) containing 2% B27 (Invitrogen), 100 ng/ml 2.5S NGF (Harland Bioproducts), […] 5-fluoro-2′deoxyuridine (Sigma), penicillin, and streptomycin). Cells were suspended in the DRG growth medium. DRG drop cultures were created by spotting 5000 cells/well into the center of each well of a 96-well tissue culture plate coated with poly-D-Lysine (0.1 mg/ml; Sigma) and laminin ([…]; Invitrogen). Cells were allowed to adhere to the plates in a humidified tissue culture incubator (5% CO2) for 15 min and then DRG growth medium was gently added ([…]).
Axonal degeneration was stimulated either by manual axonal transection using a scalpel blade, or chemotoxic stimuli. After an appropriate experimental time period, the DRG cultures were fixed in 1% PFA plus sucrose and kept in the fridge prior to imaging. Bright-field images of DRG axons and cell bodies were collected using the 20x water immersion lens of a Phenix automated confocal microscope (PerkinElmer) and quantitation of axonal performed using in-house developed scripts (Acapella, PerkinElmer).

Row | Structure (SMILES) | IC50
82 | Brc1cccc2cnccc12 [Example 8] | < 10 µM
83 | Ic1cccc2cnccc12 [Example 26] | < 10 µM
84 | Clc1cccc2cnccc12 [Example 42] | 10 to 30 µM
